Melting point data for 89 compounds are collected here from a melting point compilation (Tetko et al.; mined from patent text by program, amines drawn as free bases though some values may be those of a salt).

The structures appear in SMILES notation. Where only a bound is given, the exact number is not on record here.

In general, melting point refers to the temperature of the solid-liquid transition.

In the case of `CCCCn1ccc(N2CCC(c3ccc(C(C)(C)O)cc3F)CC2)c(Cl)c1=O`, the melting point is 150 °C.

For the compound `CCCCCCCCCCCCCC(=O)OCC1OC(n2cc(F)c(=O)n(C(=O)c3ccc(C)cc3)c2=O)CC1OC(=O)CCCCCCCCCCCCC` (centres undefined), the melting point lay within 76 to 77 °C.

`Cc1nc(-c2ccccc2Cl)n2c1nnc1ccc(N3CCCCC3)cc12` displayed a melting point of 207 to 210 °C.

In the case of `COC(=O)C1=Cc2cc(Br)ccc2N(c2ccccc2)CC1`, the melting point lay in the range of 104 to 106 °C.

`NC(=O)c1cc(-c2ccc(Cl)cc2)[nH]c1Cl`: the melting point was > 200 °C.

For the compound `O=C(O)c1cc2cccc(OCc3ccccc3)c2[nH]1`, the melting point was in the range of 166 to 168 °C.

In turn, `COC(=O)c1cc(O)c2nc(C)n(C)c2c1` yielded a melting point of 286 °C.

Compound `c1ccc(C(c2ccccc2)N2CCCC2)cc1` returned a melting point of 69 to 72 °C.

`CCCCCCCCCCCCCC(=O)NN(C)C` displayed a melting point of 63.5 to 64.5 °C.

`CC(NC(=O)Cc1cc(F)cc(F)c1)C(=O)NC1C(=O)NC(c2ccncc2)c2ccccc21` (centres undefined) returned a melting point of 100 °C.

Consider `CCc1ccccc1OC(CC)C(=O)OC1CC(O)C=C2C=CC(C)C(CCC3CC(O)CC(=O)O3)C21` (mixture of isomers), for which the melting point lay in the range of 108 to 110 °C.

In turn, `Cc1cc(Cn2cncn2)cc2c1Cc1c(-c3ccsc3)n[nH]c1-2` yielded a melting point of 255 to 257 °C.

`CCCCOC(=O)c1ccc(CN2CCCN3CCCC32)cc1` (centres undefined) returned a melting point of 64 to 67 °C.

`Cc1c(C(=O)Nc2ccc(N3CCN(CCN(C)C)CC3)c(C#N)c2)cnn1-c1ccc(F)cc1` had a melting point of 185 °C.

As to `O=C(Nc1cccc(Cc2ccccc2)c1)N1CCc2c(cnc3[nH]ncc23)C1`, the melting point was in the range of 175 to 178 °C.

In the case of `N#CN1CCN(c2nn(S(=O)(=O)c3ccccc3)c3ccccc23)CC1`, the melting point was in the range of 178 to 180 °C.

In the case of `N#Cc1cccc(-c2nc(N)cc3cccnc23)c1`, the melting point fell in the range of 102 to 104 °C.

As for `O=C1C(CCO)Oc2cc(F)ccc2N1Cc1ccccc1[N+](=O)[O-]` (centres undefined), the melting point fell in the range of 123 to 124 °C.

For the compound `CCC(CC)c1ccc(Cl)c2nc3n(c12)CCCCN3c1ccc(C(=O)NC)cc1C`, the melting point lay within 127 to 128 °C.

With `O=C(OC1C2CN(Cc3ccccc3)CC1CN(C(=O)c1ccc([N+](=O)[O-])cc1)C2)c1ccccc1` (centres undefined), the melting point amounted to 180 °C.

`CCCCCCCCCCCCCCCCCCCCOC(=O)P(=O)(O)O`: the melting point lay within 87 to 89 °C.

In turn, `C#CCN1C(=O)COc2cc(F)c(-n3c(=O)oc4c(c3=O)CCC4)cc21` showed a melting point of 222 to 224 °C.

`COc1ccc2c(c1)C13CCN(C)C(C2)C1OC(C)(C)OC3` (centres undefined) returned a melting point of 132 to 133 °C.

For `N=C(Nc1ccc(CN(Cc2ccccc2)Cc2ccccc2)cc1)c1cccs1`, the melting point fell in the range of 127 to 128 °C.

As to `C#CCOC(C(=O)NCCc1ccc(O)c(OC)c1)c1ccc(Cl)cc1` (centres undefined), the melting point fell in the range of 93 to 95 °C.

`NC(=O)c1c[nH]c2cccc(OCc3ccccc3)c12` returned a melting point of 176 °C.

`CN1CC(=O)Nc2ccccc2C1` came in with a melting point of 113 to 114 °C.

The compound `O=C(N[C@H](Cc1ccc(C(F)(F)F)cc1)[C@@H](O)c1ccc(F)cc1)c1cccc(Cl)c1Cl` (racemic) came in with a melting point of 187 to 188 °C.

In turn, `Cc1c(Cl)cccc1N=Cc1ccc(Cl)cc1` showed a melting point of 79 to 81 °C.

Compound `Cc1nc2c(c3c1[nH]c1cc(F)ccc13)C(=O)CC(C(C)C)C2` (centres undefined) registered a melting point of 285 to 286 °C.

Consider `COc1ccc2c(c1)c(Cc1cc(=O)n(C3CCCCC3)[nH]1)c(C)n2C(=O)c1ccc(Cl)cc1`, for which the melting point fell in the range of 187 to 188 °C.

In the case of `COC(=O)c1cccc(-c2nnc(-c3ccc(N4CCOCC4)cc3)o2)c1`, the melting point lay within 150 to 151 °C.

With `O=C(Nc1ccc(Oc2cc(Cl)ncn2)cc1)Nc1ccc(Cl)c(C(F)(F)F)c1`, the melting point fell in the range of 180 to 181 °C.

The compound `NS(=O)(=O)c1cccc(NC(=O)c2cnn3c(C(F)(F)F)cc(-c4ccc(F)c(F)c4)nc23)c1` gave a melting point of 275 °C.

On to `COc1cc(OC)c(NC(=O)Nc2ccccc2)cc1O`, for which the melting point was 162 to 164 °C.

In turn, `CC(C)(C)OC(=O)NCC(O)c1cccs1` (centres undefined) had a melting point of 101 to 102 °C.

`O=[N+]([O-])c1ccnc(N2CCNCC2)c1` yielded a melting point of 92 to 93 °C.

In turn, `C=CCOc1nc(N(CC)Cc2cc(Br)ccc2OCc2ccccc2)ccc1C(=O)O` displayed a melting point of 129 to 131 °C.

The compound `O=C1OC(O)c2c(Cl)cccc21` (centres undefined) displayed a melting point of 120 to 122 °C.

As to `CC(=O)Nc1nc2c(Oc3cc(-c4ccc(C(F)(F)F)cc4NC(C)=O)ncn3)cccc2s1`, the melting point was in the range of 259 to 261 °C.

`COc1cc2c(cc1OC)CC(N1CC(O)CC1=O)CC2` (centres undefined) showed a melting point of 178 to 179 °C.

Compound `COc1ccc(COc2cc(Sc3c(Cl)cc(C=O)cc3Cl)ccc2OC)cn1` returned a melting point of 102 to 104 °C.

Compound `C#CCn1c(=O)n(C(C)C)c2ccc(-c3ncc(C(F)(F)F)cc3Cl)cc21` yielded a melting point of 109 to 111 °C.

The compound `Cc1ccc(CC(=S)N[C@@H](Cc2ccccc2)C(=O)O)cc1` gave a melting point of 92 to 93 °C.

Take `COc1ccc(-c2cc(N3CCN(c4ccccc4)CC3)nc(C)c2-c2ccc(OC)cc2)cc1`: the melting point lay within 173 to 174 °C.

The compound `CSCc1c(N)c(C#N)cc(F)c1F` had a melting point of 109 to 110 °C.

`CC#Cc1cn(C2CC(OC(C)=O)C(COC(C)=O)O2)c(=O)[nH]c1=O` (centres undefined) returned a melting point of 148 to 149 °C.

`Cc1cccc(C)c1N1CN(C)CN(C)C1=S` showed a melting point of 121 to 123 °C.

The compound `CC(=O)NC(CF)COC1CCN(c2nc3ccc(OCC4CC4)cc3o2)CC1` (centres undefined) gave a melting point of 120 to 121 °C.

`CN(C)c1ccc2[nH]c(-c3cc(NC(=O)c4cccc(OCCCCCCC(=O)NO)c4)ccc3Cl)nc2c1` came in with a melting point of 140 to 142 °C.

The compound `O=C(Nc1ccccc1S(=O)(=O)N1CCCCC1)N[C@@H](Cc1ccc(Oc2nccc3cnccc23)cc1)C(=O)O` registered a melting point of 140 °C.

The compound `Cn1c2c3ccccc3nc-2cc2ccccc21` came in with a melting point of 178 to 180 °C.

The compound `N#CCN1CCC(=C2c3cc(F)ccc3CCn3ccnc32)CC1` came in with a melting point of 198 °C.

In turn, `COc1ccc(OC)c2c(C#C[Si](C)(C)C)c3ccccc3nc12` yielded a melting point of 110 to 111 °C.

Turning to `O=C1CC(O)CC(C=Cc2c3c(nn2-c2ccc(F)cc2)C(Cc2ccccc2)CCC3)O1` (racemic), the melting point lay within 185 to 187 °C.

In turn, `NNc1c(Cl)c(Cl)nc(C(=O)O)c1Cl` registered a melting point of 166 to 168 °C.

As to `O=c1[nH]c2ccccc2c2c(CO)c(CO)nn12`, the melting point was in the range of 247 to 250 °C.

In turn, `NC(=O)c1ccc(C(F)(F)F)c(N)c1` yielded a melting point of 147 to 149 °C.

Consider `C=CC(=O)NC(=O)NC(=O)CCl`, for which the melting point is 144 to 145 °C.

Compound `COC(=O)C1=C(C)NC(C)=C(c2nc(-c3ccc(CN(C)Cc4ccccc4)cc3)no2)C1c1cccc([N+](=O)[O-])c1` (centres undefined) gave a melting point of 192 to 193 °C.

As to `CCOC(=O)C(CC)Oc1ccc(-c2coc3cc4c(cc3c2=O)OCO4)cc1` (centres undefined), the melting point lay in the range of 119 to 121 °C.

Consider `Cc1nc(-c2ccccc2)nc(-c2ccncc2)c1C(=O)O`, for which the melting point was 270 to 271 °C.

Turning to `CCOC(=O)c1cn(C)c2cnc3cc(F)c(N4CCC[C@H]4CNc4ccccc4)cc3c2c1=O`, the melting point was 170 °C.

With `CCOC(=O)C1CCc2cc(OC)ccc2C1=O` (centres undefined), the melting point fell in the range of 58 to 60 °C.

For `O=C(O)c1cc2cc(C(F)(F)F)cnc2n1Cc1ccncc1`, the melting point was in the range of 302 to 303 °C.

Turning to `S=C1NCC(C2=CCC=CC2)N1` (centres undefined), the melting point was 165 to 167 °C.

The compound `CCNCC1CCN(c2c(F)cc3c(=O)c(C(=O)O)cn(C4CC4)c3c2F)C1` (centres undefined) had a melting point of 256 to 258 °C.

As to `CC(CC#N)C(C#N)(c1ccc(N2CCOCC2)c([N+](=O)[O-])c1)N1CCOCC1` (centres undefined), the melting point fell in the range of 175 to 177 °C.

Regarding `COC(=O)C=Cc1ccc(OCC(C)=O)cc1`, the melting point lay in the range of 117 to 118 °C.

As for `COc1nc(C)c(C)nc1N(C)C(=O)N1CCN(c2cc([N+](=O)[O-])cc([N+](=O)[O-])c2)CC1`, the melting point was in the range of 133 to 135 °C.

`CC1=C(C(=O)N(C)C)C(c2ccccc2Cl)c2c[nH]nc2N1` (centres undefined) had a melting point of 229 °C.

`Cc1cccc(C)c1CCOCCCCCCNCc1c(CO)ccc(O)c1CO` displayed a melting point of 83 to 86 °C.

Compound `Cc1ccc(-c2ccc3c(c2)C=CCCO3)cc1` showed a melting point of 98 to 100 °C.

`Cc1nn(-c2ccccc2)c2[nH]c(=O)c3ccccc3c12` returned a melting point of 302 to 304 °C.

The compound `CC(C)c1cc(CC#N)c(C(C)C)cc1C#N` had a melting point of 88 to 89 °C.

`COc1ccc(CS[C@@H]2C[C@@H](CNCc3ccccc3)N(S(C)(=O)=O)C2)cc1`: the melting point was 63 to 64 °C.

Compound `CC1=C(C(=O)OC2CC(C)(C)N(C)C(C)(C)C2)CC(C(=O)OC2CC(C)(C)N(C)C(C)(C)C2)=C(C)N1` gave a melting point of 232 °C.

For `CC(C)Cc1nn(C)c(=O)c2c(SCCCO)n(Cc3ccccc3)cc12`, the melting point lay in the range of 91 to 92 °C.

Consider `O=P(O)(O)Cc1ccc(-c2ccccc2)cc1`, for which the melting point was 246 to 248 °C.

Compound `COc1cc(OC)c(C(C)=O)cc1OC` came in with a melting point of 91 to 93 °C.

In turn, `Cc1c(-c2ccccc2)[nH]c(N)c1C(N)=O` came in with a melting point of 195 to 197 °C.

Take `COC(=O)c1[nH]cc(Cc2ccsc2)c1N`: the melting point was in the range of 108 to 110 °C.

Compound `NC(=O)CSC(c1ccccc1)c1ccccc1` returned a melting point of 104 to 110 °C.

`CC(=O)Nc1cc2c3c(cccc3c1N1CCCC1)C(=O)N(O)C2=O` came in with a melting point of 280 to 284 °C.

Compound `COc1cc(C#N)ccc1C(Br)C(Br)C(=O)c1cccc(C#N)c1` (centres undefined) showed a melting point of 72 to 75 °C.

In the case of `CC1CCCCN(C(=O)C2Cc3ccccc3N2c2ccc(=O)n(C)n2)C1` (centres undefined), the melting point was in the range of 109 to 112 °C.

For the compound `COc1cc(Nc2c(C#N)cnc3cc(-c4ccc(C(N)=O)cc4)sc23)c(Cl)cc1Cl`, the melting point was > 300 °C.

Turning to `CCOC(=O)C(=O)Nc1ncccc1C#N`, the melting point lay in the range of 95 to 97 °C.

`Nc1nc(N)nc(C2CC3CCC2C3)n1` (centres undefined): the melting point lay within 216 to 217 °C.
